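A five-concentration, 48-hour dose response in 96-well plates underlies each endpoint, interpolated linearly between surrounding concentrations. At the GI50, growth is halved.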 The source made the active and inactive calls. No stated cut-off is given here; in the data, active = GI50 up to about 1.1 µM and inactive = higher.
How the values were obtained:
Test in all cases: inhibition of tumour cell growth, NCI panel, 48 h
HT-29 = test system: HT-29
SF-539 = test system: SF-539
NCI-H226 = test system: NCI-H226
IGROV-1 = test system: IGROV-1
SK-MEL-5 = test system: SK-MEL-5
SF-295 = test system: SF-295
UACC-62 = test system: UACC-62
MDA-N = test system: MDA-N
PC-3 = test system: PC-3
HCT-15 = test system: HCT-15
SK-OV-3 = test system: SK-OV-3
NCI-H522 = test system: NCI-H522
CCRF-CEM = test system: CCRF-CEM
M14 = test system: M14
A549 = test system: A549
OVCAR-4 = test system: OVCAR-4
CAKI-1 = test system: CAKI-1
SK-MEL-28 = test system: SK-MEL-28
MCF7 = test system: MCF7
COLO 205 = test system: COLO 205
HCT-116 = test system: HCT-116
HL-60 = test system: HL-60
MDA-MB-231 = test system: MDA-MB-231
UO-31 = test system: UO-31
UACC-257 = test system: UACC-257
LOX IMVI = test system: LOX IMVI
NCI-H23 = test system: NCI-H23
RPMI-8226 = test system: RPMI-8226
MOLT-4 = test system: MOLT-4
SF-268 = test system: SF-268
OVCAR-8 = test system: OVCAR-8
SK-MEL-2 = test system: SK-MEL-2
OVCAR-3 = test system: OVCAR-3
OVCAR-5 = test system: OVCAR-5
SNB-19 = test system: SNB-19
KM12 = test system: KM12
SNB-75 = test system: SNB-75
SR = test system: SR
NCI/ADR-RES = test system: NCI/ADR-RES
BT-549 = test system: BT-549
U-251 = test system: U-251
786-0 = test system: 786-0
HCC 2998 = test system: HCC 2998
Hs-578T = test system: Hs-578T
RXF 393 = test system: RXF 393
K562 = test system: K562
T47D = test system: T47D
ACHN = test system: ACHN
TK-10 = test system: TK-10
HOP-92 = test system: HOP-92
SN12C = test system: SN12C
SW-620 = test system: SW-620
EKVX = test system: EKVX
HOP-62 = test system: HOP-62
Malme-3M = test system: Malme-3M
NCI-H460 = test system: NCI-H460
MDA-MB-435 = test system: MDA-MB-435
DU-145 = test system: DU-145
A498 = test system: A498

`O=C(O)c1ccccc1CC1Cc2ccccc2C1=O` (stereo not given) was tested, and the GI50 (HT-29) was > 100 µM (inactive), the GI50 (SF-539) was > 100 µM (inactive) and the GI50 (NCI-H226) was > 100 µM (inactive). For the same compound, the GI50 (IGROV-1) was > 100 µM (inactive), the GI50 (SK-MEL-5) was > 100 µM (inactive) and the GI50 (SF-295) was > 100 µM (inactive). The GI50 (UACC-62) was > 100 µM (inactive), the GI50 (MDA-N) was > 100 µM (inactive) and the GI50 (PC-3) was > 100 µM (inactive). For the same compound, the GI50 (HCT-15) was over 100 µM, the GI50 (SK-OV-3) was > 100 µM (inactive) and the GI50 (NCI-H522) was > 100 µM (inactive). The GI50 (CCRF-CEM) was > 100 µM (inactive), the GI50 (M14) was > 100 µM (inactive) and the GI50 (A549) was > 100 µM (inactive). For the same compound, the GI50 (OVCAR-4) was > 100 µM (inactive), the GI50 (CAKI-1) was > 100 µM (inactive) and the GI50 (SK-MEL-28) was > 100 µM (inactive). The GI50 (MCF7) was > 100 µM (inactive), the GI50 (COLO 205) was > 100 µM (inactive) and the GI50 (HCT-116) was > 100 µM (inactive). The GI50 (HL-60) was > 100 µM (inactive), the GI50 (MDA-MB-231) was > 100 µM (inactive) and the GI50 (UO-31) was > 100 µM (inactive). For the same compound, the GI50 (UACC-257) was > 100 µM (inactive), the GI50 (LOX IMVI) was > 100 µM (inactive) and the GI50 (NCI-H23) was > 100 µM (inactive). The GI50 (RPMI-8226) was > 100 µM (inactive), the GI50 (MOLT-4) was > 100 µM (inactive) and the GI50 (SF-268) was > 100 µM (inactive). For the same compound, the GI50 (OVCAR-8) was > 100 µM (inactive), the GI50 (SK-MEL-2) was > 100 µM (inactive) and the GI50 (OVCAR-3) was > 100 µM (inactive). For the same compound, the GI50 (OVCAR-5) was > 100 µM (inactive), the GI50 (SNB-19) was > 100 µM (inactive) and the GI50 (KM12) was > 100 µM (inactive). For the same compound, the GI50 (SNB-75) was 64.7 µM (inactive), the GI50 (SR) was > 100 µM (inactive) and the GI50 (NCI/ADR-RES) was > 100 µM (inactive). The GI50 (BT-549) was > 100 µM (inactive), the GI50 (U-251) was > 100 µM (inactive) and the GI50 (786-0) was > 100 µM (inactive). For the same compound, the GI50 (HCC 2998) was > 100 µM (inactive), the GI50 (Hs-578T) was > 100 µM (inactive) and the GI50 (RXF 393) was > 100 µM (inactive). The GI50 (K562) was > 100 µM (inactive), the GI50 (T47D) was > 100 µM (inactive) and the GI50 (ACHN) was > 100 µM (inactive). For the same compound, the GI50 (TK-10) was > 100 µM (inactive), the GI50 (HOP-92) was > 100 µM (inactive) and the GI50 (SN12C) was > 100 µM (inactive). For the same compound, the GI50 (SW-620) was > 100 µM (inactive), the GI50 (EKVX) was > 100 µM (inactive) and the GI50 (HOP-62) was > 100 µM (inactive). The GI50 (Malme-3M) was > 100 µM (inactive), the GI50 (NCI-H460) was > 100 µM (inactive) and the GI50 (MDA-MB-435) was > 100 µM (inactive). The GI50 (DU-145) was > 100 µM (inactive).

`COc1cc(C=C(c2ccc(N(C)C)cc2)c2ccc(N(C)C)cc2)c2ccccc2c1OC` was tested, and the GI50 (HT-29) was 19 µM (inactive), the GI50 (NCI-H226) was 41 µM (inactive) and the GI50 (IGROV-1) was > 100 µM (inactive). For the same compound, the GI50 (SK-MEL-5) was 51.9 µM (inactive), the GI50 (SF-295) was 30.3 µM (inactive) and the GI50 (UACC-62) was 27.4 µM (inactive). The GI50 (MDA-N) was 16.2 µM (inactive), the GI50 (PC-3) was 41.6 µM (inactive) and the GI50 (HCT-15) was 40.4 µM. For the same compound, the GI50 (SK-OV-3) was > 100 µM (inactive), the GI50 (NCI-H522) was 25.4 µM (inactive) and the GI50 (CCRF-CEM) was 18.6 µM (inactive). For the same compound, the GI50 (M14) was 63.1 µM (inactive), the GI50 (A549) was > 100 µM (inactive) and the GI50 (OVCAR-4) was 70.3 µM (inactive). The GI50 (CAKI-1) was > 100 µM (inactive), the GI50 (SK-MEL-28) was 93.8 µM (inactive) and the GI50 (MCF7) was 26.2 µM (inactive). For the same compound, the GI50 (COLO 205) was 55.7 µM (inactive), the GI50 (HCT-116) was 35.1 µM (inactive) and the GI50 (HL-60) was 9.29 µM (inactive). The GI50 (MDA-MB-231) was > 100 µM (inactive), the GI50 (UO-31) was > 100 µM (inactive) and the GI50 (UACC-257) was 76.7 µM (inactive). The GI50 (LOX IMVI) was 64.9 µM (inactive), the GI50 (NCI-H23) was > 100 µM (inactive) and the GI50 (RPMI-8226) was 45.8 µM (inactive). For the same compound, the GI50 (MOLT-4) was > 100 µM (inactive), the GI50 (SF-268) was > 100 µM (inactive) and the GI50 (OVCAR-8) was > 100 µM (inactive). The GI50 (SK-MEL-2) was 33.9 µM (inactive), the GI50 (OVCAR-3) was 27.2 µM (inactive) and the GI50 (OVCAR-5) was > 100 µM (inactive). For the same compound, the GI50 (SNB-19) was > 100 µM (inactive), the GI50 (KM12) was 38.4 µM (inactive) and the GI50 (SNB-75) was 36.3 µM (inactive). The GI50 (SR) was 22.3 µM (inactive), the GI50 (NCI/ADR-RES) was 23.4 µM (inactive) and the GI50 (BT-549) was 35.2 µM (inactive). The GI50 (U-251) was 54 µM (inactive), the GI50 (786-0) was > 100 µM (inactive) and the GI50 (HCC 2998) was 87.7 µM (inactive). For the same compound, the GI50 (Hs-578T) was 43.2 µM (inactive), the GI50 (RXF 393) was > 100 µM (inactive) and the GI50 (K562) was 17.5 µM (inactive). For the same compound, the GI50 (T47D) was > 100 µM (inactive), the GI50 (ACHN) was 49.4 µM (inactive) and the GI50 (TK-10) was > 100 µM (inactive). For the same compound, the GI50 (HOP-92) was > 100 µM (inactive), the GI50 (SN12C) was > 100 µM (inactive) and the GI50 (EKVX) was > 100 µM (inactive). For the same compound, the GI50 (HOP-62) was 64 µM (inactive), the GI50 (Malme-3M) was 70.8 µM (inactive) and the GI50 (NCI-H460) was 96.2 µM (inactive). For the same compound, the GI50 (MDA-MB-435) was 22.3 µM (inactive) and the GI50 (DU-145) was > 100 µM (inactive).

With `CO[C@@H](c1ccccc1)[C@H](O)[C@@](O)(c1ccccc1)P(=O)(OC)OC` the GI50 (HT-29) was > 100 µM (inactive), the GI50 (SF-539) was > 100 µM (inactive) and the GI50 (NCI-H226) was > 100 µM (inactive). The GI50 (IGROV-1) was 48.2 µM (inactive), the GI50 (SK-MEL-5) was > 100 µM (inactive) and the GI50 (SF-295) was > 100 µM (inactive). For the same compound, the GI50 (UACC-62) was > 100 µM (inactive), the GI50 (MDA-N) was > 100 µM (inactive) and the GI50 (PC-3) was > 100 µM (inactive). The GI50 (HCT-15) was over 100 µM, the GI50 (SK-OV-3) was > 100 µM (inactive) and the GI50 (NCI-H522) was 78.9 µM (inactive). For the same compound, the GI50 (CCRF-CEM) was > 100 µM (inactive), the GI50 (M14) was > 100 µM (inactive) and the GI50 (A549) was > 100 µM (inactive). The GI50 (CAKI-1) was 34.7 µM (inactive), the GI50 (SK-MEL-28) was > 100 µM (inactive) and the GI50 (MCF7) was > 100 µM (inactive). For the same compound, the GI50 (COLO 205) was > 100 µM (inactive), the GI50 (HCT-116) was > 100 µM (inactive) and the GI50 (HL-60) was > 100 µM (inactive). For the same compound, the GI50 (MDA-MB-231) was > 100 µM (inactive), the GI50 (UO-31) was > 100 µM (inactive) and the GI50 (UACC-257) was > 100 µM (inactive). For the same compound, the GI50 (LOX IMVI) was > 100 µM (inactive), the GI50 (NCI-H23) was > 100 µM (inactive) and the GI50 (RPMI-8226) was > 100 µM (inactive). The GI50 (MOLT-4) was > 100 µM (inactive), the GI50 (SF-268) was > 100 µM (inactive) and the GI50 (A498) was > 100 µM (inactive). The GI50 (OVCAR-8) was > 100 µM (inactive), the GI50 (SK-MEL-2) was > 100 µM (inactive) and the GI50 (OVCAR-3) was > 100 µM (inactive). The GI50 (OVCAR-5) was > 100 µM (inactive), the GI50 (SNB-19) was > 100 µM (inactive) and the GI50 (KM12) was 28.4 µM (inactive). For the same compound, the GI50 (SNB-75) was > 100 µM (inactive), the GI50 (SR) was > 100 µM (inactive) and the GI50 (NCI/ADR-RES) was > 100 µM (inactive). For the same compound, the GI50 (BT-549) was > 100 µM (inactive), the GI50 (U-251) was > 100 µM (inactive) and the GI50 (786-0) was > 100 µM (inactive). The GI50 (Hs-578T) was > 100 µM (inactive), the GI50 (RXF 393) was > 100 µM (inactive) and the GI50 (K562) was > 100 µM (inactive). The GI50 (T47D) was > 100 µM (inactive), the GI50 (ACHN) was > 100 µM (inactive) and the GI50 (TK-10) was > 100 µM (inactive). For the same compound, the GI50 (HOP-92) was 29.8 µM (inactive), the GI50 (SN12C) was > 100 µM (inactive) and the GI50 (SW-620) was > 100 µM (inactive). For the same compound, the GI50 (EKVX) was > 100 µM (inactive), the GI50 (Malme-3M) was 36.6 µM (inactive) and the GI50 (NCI-H460) was > 100 µM (inactive). For the same compound, the GI50 (MDA-MB-435) was 44.4 µM (inactive) and the GI50 (DU-145) was > 100 µM (inactive).

Source: ChEMBL document CHEMBL1201862, “PubChem BioAssay data set” (2004)
